Reference: patent US20090124631A1, “Combination Therapy” (priority 2007, published 2009)

Columns and labels:
HDAC1 = molecular target: T1, HDAC1 (Homo sapiens, UniProt Q13547); test: Fluorescence-based HDAC enzyme assay, recombinant HDAC1; format: biochemical; conditions: recombinant human HDAC enzyme in vitro; read-out: IC50 (μM) HD1
T1 construct: cDNAs corresponding to the full length human HDAC1, 2, 3 and 11 were cloned into pBlueBac4.5 vector; FLAG (C); made in house; host or cells: Sf-9 insect cells (baculovirus)
Text: (§1) cDNAs of human HDAC1-8 and 11 were generated by RT-PCR reactions using primers complementary to the 5′ and 3′ coding sequence of human HDAC gene sequences in GenBank. cDNAs corresponding to the full length human HDAC1, 2, 3 and 11 were cloned into pBlueBac4.5 vector (Invitrogen). The constructs were used to generate recombinant baculoviruses using the Bac-N-Blue™ DNA according to the manufacturer's instructions (Invitrogen). The recombinant HDAC1, 2, 3, 11 proteins produced harbor a FLAG tag at their C-termini. cDNAs encoding truncated versions of HDAC4, 5 and 7 encompassing their deacetylase domains were cloned into pDEST10 as an N-terminal hexahistidine fusion protein and recombinant baculoviruses were generated using the Bac-to-Bac™ Baculovirus expression system (Invitrogen). HDAC6 and 8 were cloned as full length N-terminally His-tagged protein. All HDAC proteins were expressed in insect Sf-9 cells (Spodoptera frugiperdai) upon infection with recombinant baculovirus. HDAC1 enzyme was purified from the Q-sepharose FF column (Amersham Pharmacia Biotech, Baie d'Urfe QC, Canada) followed by an anti-FLAG immunoaffinity column (Sigma). […] HDAC4, 5, 6, 7 and 8 were purified using either Ni-NTA resin (QIAGEN Mississauga ON, Canada) or His-Select resin (Sigma) with step washes and elution with different concentrations of imidazole in Buffer containing 25 mM Tris (or NaPO4) pH 8.0, 10% glycerol and 150 mM or 500 mM NaCl.
(§2) Boc-Lys(Ac)-AMC (for HDAC1, 2, 3, 6, and 8 enzymes), which was purchased from Bachem Biosciences Inc., (King of Prussia, Philadelphia) were added into enzyme-compound mixture and incubated at 37° C. For HDAC4, 5, 7 assays, Boc-Lys(TFA)-AMC, which was synthesized in house, was used as substrate and 0.1% BSA was added to the buffer. […] Reaction time was predetermined to ensure that reaction was linear for the incubation time. Reaction was stopped by adding a freshly prepared trypsin (1 mg/ml final concentration) with 1 μM TSA (Biomol) in assay buffer. After 30 minutes, fluorescence was measured using a fluorometer (SPECTRAMAX GeminiXS, Molecular Devices, Sunnylvale, Calif.).

HDAC2 = molecular target: T2, HDAC2 (Homo sapiens, UniProt Q92769); test: Fluorescence-based HDAC enzyme assay, recombinant HDAC2; format: biochemical; conditions: recombinant human HDAC enzyme in vitro; read-out: IC50 (μM) HD2
T2 construct: cDNAs corresponding to the full length human HDAC1, 2, 3 and 11 were cloned into pBlueBac4.5 vector; FLAG (C); made in house; host or cells: Sf-9 insect cells (baculovirus)
Text: as §1, §2

HDAC3 = molecular target: T3, HDAC3 (Homo sapiens, UniProt O15379); test: Fluorescence-based HDAC enzyme assay, recombinant HDAC3; format: biochemical; conditions: recombinant human HDAC enzyme in vitro; read-out: IC50 (μM) HD3
T3 construct: cDNAs corresponding to the full length human HDAC1, 2, 3 and 11 were cloned into pBlueBac4.5 vector; FLAG (C); made in house; host or cells: Sf-9 insect cells (baculovirus)
Text: cDNAs of human HDAC1-8 and 11 were generated by RT-PCR reactions using primers complementary to the 5′ and 3′ coding sequence of human HDAC gene sequences in GenBank. cDNAs corresponding to the full length human HDAC1, 2, 3 and 11 were cloned into pBlueBac4.5 vector (Invitrogen). The constructs were used to generate recombinant baculoviruses using the Bac-N-Blue™ DNA according to the manufacturer's instructions (Invitrogen). The recombinant HDAC1, 2, 3, 11 proteins produced harbor a FLAG tag at their C-termini. cDNAs encoding truncated versions of HDAC4, 5 and 7 encompassing their deacetylase domains were cloned into pDEST10 as an N-terminal hexahistidine fusion protein and recombinant baculoviruses were generated using the Bac-to-Bac™ Baculovirus expression system (Invitrogen). HDAC6 and 8 were cloned as full length N-terminally His-tagged protein. All HDAC proteins were expressed in insect Sf-9 cells (Spodoptera frugiperdai) upon infection with recombinant baculovirus. HDAC1 enzyme was purified from the Q-sepharose FF column (Amersham Pharmacia Biotech, Baie d'Urfe QC, Canada) followed by an anti-FLAG immunoaffinity column (Sigma). HDAC2, 3 and 11 were purified using Flag-antibody immunoaffinity purification. HDAC4, 5, 6, 7 and 8 were purified using either Ni-NTA resin (QIAGEN Mississauga ON, Canada) or His-Select resin (Sigma) with step washes and elution with different concentrations of imidazole in Buffer containing 25 mM Tris (or NaPO4) pH 8.0, 10% glycerol and 150 mM or 500 mM NaCl.
Recombinant HDAC enzymes were incubated with diluted compounds in assay buffer (25 mM Hepes, pH 8.0, 137 mM NaCl, 1 mM MgCl2 and 2.7 mM KCl) for 10 minutes at ambient temperatures in black 96-well plate. Boc-Lys(Ac)-AMC (for HDAC1, 2, 3, 6, and 8 enzymes), which was purchased from Bachem Biosciences Inc., (King of Prussia, Philadelphia) were added into enzyme-compound mixture and incubated at 37° C. […] After 30 minutes, fluorescence was measured using a fluorometer (SPECTRAMAX GeminiXS, Molecular Devices, Sunnylvale, Calif.). […]

[1] = test system: recombinant human HDAC enzymes; test: HDAC isotype selectivity across recombinant HDAC enzymes; format: biochemical; conditions: from Table 1
Text: as §1, §2

[2] = test system: histone H3 acetylation in human bladder carcinoma T24 cells; test: Cell-based ELISA for H3 acetylation
Procedure: (§3) Bladder carcinoma T24 cells were seeded in black plates with clear bottoms (Costar #3603) at 1×10^4 cells per well in a volume of 100 μl per well, and were allowed to settle for one day at 37° C. in a CO2 incubator. The cells were treated for 16 h with various concentrations of HDAC inhibitors. 3 h before the end of the treatment, Alamar Blue (BioSource) was added to monitor cell viability according to the manufacturer's instructions. At the end of the treatment time, Alamar Blue OD (at 570 nm and 600 nm) was recorded, then the cells were carefully washed in PBS, fixed in pre-chilled methanol for 10 min at −20° C., washed again twice in PBS, and blocked in PBS containing 0.1% Triton X-100 and 1% BSA for a minimum of 30 min. For H3 acetylation, rabbit-anti-acetyl-H3 (Upstate #06-599) was used as primary antibody at a dilution of 1:1000 for 45 min; the secondary antibody was HRP-coupled goat-anti-rabbit (Sigma #A-0545), used at 1:8000 for 45 min. For tubulin acetylation, the primary antibody was mouse anti-acetyl-tubulin (Sigma #T-6793, 1:2000, 45 min) while the secondary was HRP-coupled goat-anti-mouse antibody (Sigma #A-2304, 1:8000, 45 min). All antibodies were diluted in blocking buffer, and the cells were washed in blocking buffer following each antibody incubation. […] The fluorescent signal for acetylation was normalized by dividing with the viability data obtained from Alamar Blue. EC50 was defined as the concentration of compound which gave a signal half-way between the basal (untreated) level and the maximum level generated by high doses of the HDAC pan-inhibitor NVP-LAQ-824.

[3] = test system: tubulin acetylation in human bladder carcinoma T24 cells; test: Cell-based ELISA for tubulin acetylation
Procedure: as §3

[4] = test system: bFGF transcription in human prostate cancer Du145 cells; test: bFGF transcription in Du145 cells in vitro; format: cell-based; conditions: 3 μM, 24 hour treatment
Procedure: (§4) Human prostate cancer Du145 cells were exposed to Cpd A or SAHA (3 microM) for 24 hours. Total RNA was collected by Isogen (Nippongene, Tokyo, Japan) and reverse-transcribed to cDNA by ExScript® RT reagent Kit (TAKARA, Kyoto, Japan). The expression level of bFGF mRNA was detected by ABI7700 analyzer using probe/primer pre-mixture reagent (ABI, Cat# Hs00266645_m1, CA, USA) and TaqMan® Universal PCR Master Mix (ABI, Cat# 430-4437) as described in the ABI's protocol. The expression level of VEGF mRNA was detected in a similar manner using the appropriate probe/primer reagents.

[5] = test system: VEGF expression in DU145 cells; test: VEGF transcription in Du145 cells in vitro; format: cell-based, human; conditions: 24 hour treatment
Procedure: as §4

H460 (NSCLC) xenografts = test: H460 (NSCLC) xenograft, oral HDAC inhibitor with taxol; format: in vivo, mouse; conditions: Compound A 100 mg/kg or SAHA 120 mg/kg with taxol 60 mg/kg
Procedure: (§5) Antitumor studies were done using human H460 non-small cell lung tumor, Du145 prostate tumor, TSU-Pr1 prostate tumor, and AZ521 gastric tumor xenograft model in male BALBc/A nude mice (from Japan Crea Inc., Japan). Male nude mice were used at age 8-10 weeks. Human carcinoma cells were injected subcutaneously in the animal flank and allowed to form solid tumors. Tumor fragments (about 2 mm^3 fragments) were then removed and implanted subcutaneously through a small surgical incision to the right flank of other animals. […] Tumor volumes and gross body weight of animals were monitored twice weekly for up to 2 weeks for AZ-521 and TSU-Pr1, or 4 weeks for H460 and Du145 xenografts. Each experimental group contained 6 animals.

[6] = test system: TSP-1 expression in cancer cells (Du145, H460, A549); test: TSP-1 transcription in cancer cells in vitro; format: cell-based, human; conditions: over time, 3 microM, 24 hours
Procedure: Cells were exposed by Cpd A or SAHA (3 microM) for 24 hours. Total RNA was collected by Isogen (Nippongene, Tokyo, Japan) and reverse-transcribed to cDNA by ExScript® RT reagent Kit (TAKARA, Kyoto, Japan). The expression level of TSP-1 mRNA was detected by ABI7700 analyzer using a probe/primer pre-mixture reagent (ABI, Cat#, CA, USA) and TaqMan® Universal PCR Master Mix (ABI, Cat# 430-4437) as described in the ABI's protocol.

[7] = test system: human H460 non-small cell lung tumor, Du145 prostate tumor, TSU-Pr1 prostate tumor, and AZ521 gastric tumor xenograft; test: Xenograft combination studies with taxol (Example 15); format: in vivo, mouse; conditions: oral administration, nude mice with human lung, prostate and gastric tumors
Procedure: as §5

[8] = test system: mouse endothelial MS-1 cells; test: Growth inhibition of MS-1 cells by taxol with recombinant TSP-1; format: cell-based; conditions: recombinant TSP1 10 ug/ml, 72 hour
Procedure: Mouse endothelial MS-1 cells were seeded into 96 well-plate and incubated in 5% CO2 incubator for 24 hours. Taxol at various concentrations was added into cell culture and 6 hours later media were replaced with fresh media containing recombinant TSP1 (10 ug/ml) but without taxol. After 72 hour incubation, the growth inhibitory effect was determined by crystal violet staining.

T2 sequence (Q92769 whole entry): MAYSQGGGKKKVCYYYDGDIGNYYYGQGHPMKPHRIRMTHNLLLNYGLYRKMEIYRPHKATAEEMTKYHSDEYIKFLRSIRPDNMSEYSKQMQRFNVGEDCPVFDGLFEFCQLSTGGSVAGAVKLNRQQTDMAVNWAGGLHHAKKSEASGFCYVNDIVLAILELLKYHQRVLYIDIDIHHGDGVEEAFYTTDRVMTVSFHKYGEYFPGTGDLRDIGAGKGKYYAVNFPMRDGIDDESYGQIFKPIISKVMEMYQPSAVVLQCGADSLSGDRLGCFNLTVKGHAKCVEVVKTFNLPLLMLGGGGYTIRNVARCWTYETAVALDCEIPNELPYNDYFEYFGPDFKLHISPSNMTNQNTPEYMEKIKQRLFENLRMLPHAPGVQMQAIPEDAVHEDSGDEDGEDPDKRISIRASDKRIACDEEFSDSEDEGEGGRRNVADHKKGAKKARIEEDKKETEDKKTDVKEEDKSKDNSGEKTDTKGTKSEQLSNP
T1 sequence (Q13547 whole entry): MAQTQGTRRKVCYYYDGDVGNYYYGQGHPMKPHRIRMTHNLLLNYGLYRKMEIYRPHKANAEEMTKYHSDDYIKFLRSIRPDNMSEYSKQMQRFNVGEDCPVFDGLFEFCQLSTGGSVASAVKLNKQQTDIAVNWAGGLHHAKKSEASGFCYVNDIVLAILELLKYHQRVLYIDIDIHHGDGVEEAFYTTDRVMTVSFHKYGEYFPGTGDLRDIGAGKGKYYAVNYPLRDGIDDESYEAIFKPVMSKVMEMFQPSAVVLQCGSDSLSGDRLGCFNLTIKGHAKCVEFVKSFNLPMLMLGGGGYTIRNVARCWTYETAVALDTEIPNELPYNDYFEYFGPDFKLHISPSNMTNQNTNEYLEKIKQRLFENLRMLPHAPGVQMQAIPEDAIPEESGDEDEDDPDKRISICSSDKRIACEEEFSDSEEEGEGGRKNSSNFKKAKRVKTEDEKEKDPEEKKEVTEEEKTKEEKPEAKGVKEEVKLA
T3 sequence (O15379 whole entry): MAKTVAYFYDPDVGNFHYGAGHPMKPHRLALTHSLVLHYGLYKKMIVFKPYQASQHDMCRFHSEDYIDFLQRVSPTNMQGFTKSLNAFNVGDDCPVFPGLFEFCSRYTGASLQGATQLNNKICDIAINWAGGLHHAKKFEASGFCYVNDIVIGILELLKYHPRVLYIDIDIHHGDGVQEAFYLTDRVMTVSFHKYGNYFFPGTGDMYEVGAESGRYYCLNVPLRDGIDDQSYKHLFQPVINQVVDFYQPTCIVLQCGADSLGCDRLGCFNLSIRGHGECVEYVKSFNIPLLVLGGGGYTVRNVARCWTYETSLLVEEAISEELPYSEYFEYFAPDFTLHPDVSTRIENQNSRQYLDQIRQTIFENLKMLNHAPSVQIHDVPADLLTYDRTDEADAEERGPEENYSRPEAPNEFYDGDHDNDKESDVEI

O=C(Nc1ccccc1)c1ccc(CNc2nccc(-c3cccnc3)n2)cc1 [Compound C]
IC50 (HDAC1): > 10 µM | IC50 (HDAC2): > 10 µM | IC50 (HDAC3): > 10 µM | HDAC isotype selectivity [1]: inactive

O=C(/C=C/c1ccc(CN(CCO)CCc2c[nH]c3ccccc23)cc1)NO [NVP-LAQ824]
histone H3 acetylation [2]: Nonselective effect | tubulin acetylation [3]: Nonselective effect

O=C(CCCCCCC(=O)Nc1ccccc1)NO [SAHA, reference compound]
histone H3 acetylation [2]: Nonselective effect | tubulin acetylation [3]: Nonselective effect | bFGF transcription [4]: Reduction | VEGF expression [5]: Reduction | tumor response to combination therapy with taxol (H460 (NSCLC) xenografts): tumor regression | TSP-1 expression [6]: Induction | antitumor activity of taxol [7]: Potentiation

Recombinant TSP-1: recombinant thrombospondin-1, agonist of TSP1 receptor
proapoptotic effect of taxol [8]: Potentiates
